Experimental data: patent US20050090399A1, “Phenyl substituted heterocyclic compounds useful as herbicides” (priority 2002, published 2005)

Assays:
[1] = tested on: Setaria (Set); assay: Pre-emergence herbicidal action, greenhouse pot test: Setaria; format: in vivo; conditions: 125 g/ha
Description: (§1) Monocotyledonous and dicotyledonous weeds and summer wheat (Lona) are sown in standard soil in plastics pots. Directly after sowing, the test compounds are applied as EC 125 and WP 10 (without additional surface-active compounds). The rate of application is 125 g of active substance per ha. The test plants are then grown on in the greenhouse under optimum conditions. Evaluation is carried out 20 days after application: 100 denotes 100% damage to the plant in question.
(§2) Test plants: Agrostis (Agr), Alopecurus (Alo), Phalaris (Pha), Lolium (Lol) and Setaria (Set).

[2] = tested on: Lolium (Lol); assay: Pre-emergence herbicidal action, greenhouse pot test: Lolium; format: in vivo; conditions: 125 g/ha
Description: as §1, §2

[3] = tested on: summer wheat (Lona); assay: Pre-emergence herbicidal action, greenhouse pot test: damage to summer wheat; format: in vivo; conditions: 125 g/ha
Description: as §1, §2

[4] = tested on: Alopecurus (Alo); assay: Pre-emergence herbicidal action, greenhouse pot test: Alopecurus; format: in vivo; conditions: 125 g/ha
Description: as §1, §2

[5] = tested on: Agrostis (Agr); assay: Pre-emergence herbicidal action, greenhouse pot test: Agrostis; format: in vivo; conditions: 125 g/ha
Description: as §1, §2

[6] = tested on: Phalaris (Pha); assay: Pre-emergence herbicidal action, greenhouse pot test: Phalaris; format: in vivo; conditions: 125 g/ha
Description: as §1, §2

[7] = applied directly after sowing as EC 125, evaluation 20 days after application
[8] = applied directly after sowing as WP 10, evaluation 20 days after application

Row | SMILES | Herbicidal action (damage to the plant), Set [1, 8] | Herbicidal action (damage to the plant), Lol [2, 8] | Herbicidal action (damage to the plant), wheat [3, 8] | Herbicidal action (damage to the plant), Alo [4, 8] | Herbicidal action (damage to the plant), Agr [5, 8] | Herbicidal action (damage to the plant), Pha [6, 8] | melting point | also measured
1 | CCc1cc(C)cc(CC)c1C1C(=O)N2CCOCCN2C1=O [compound A, 8-(2,6-diethyl-4-methyl-phenyl)-tetrahydropyrazolo[1,2-d][1,4,5]oxadiazepine-7,9-dione, reference compound] | – | – | – | – | – | – | – | Herbicidal action (damage to the plant), Set [1, 7]: 100%; Herbicidal action (damage to the plant), Lol [2, 7]: 98%; Herbicidal action (damage to the plant), wheat [3, 7]: 20%; Herbicidal action (damage to the plant), Alo [4, 7]: 100%; Herbicidal action (damage to the plant), Agr [5, 7]: 95%; Herbicidal action (damage to the plant), Pha [6, 7]: 100%
2 | CCCCCCCC/C=C\CCCCCCCCC(C)(C)C(=O)Oc1c(-c2c(CC)cc(C)cc2CC)c(=O)n2n1CCOCC2 [compound 1.05b] | 70% | 70% | 0% | 80% | 80% | 100% | – | –
3 | CCCCCCCC/C=C\CCCCCCCC(=O)Oc1c(-c2c(CC)cc(C)cc2CC)c(=O)n2n1CCOCC2 [compound 1.03] | 100% | 90% | 10% | 90% | 98% | 100% | – | –
4 | CCCCCCCCCCCC(=O)Oc1c(-c2c(CC)cc(C)cc2CC)c(=O)n2n1CCOCC2 [1.01] | – | – | – | – | – | – | 106 to 107 °C | –
5 | CCCCCCCC/C=C\CCCCCCCCC(C)C(=O)Oc1c(-c2c(CC)cc(C)cc2CC)c(=O)n2n1CCOCC2 (centres unmarked) [compound 1.12b] | 90% | 80% | 10% | 90% | 95% | 100% | – | –
6 | CCCCCCCCCCCCCCCC(=O)Oc1c(-c2c(CC)cc(C)cc2CC)c(=O)n2n1CCOCC2 [1.02] | – | – | – | – | – | – | 91 to 92 °C | –
